Measured values published in patent US11186576B2, “Pyrazolo[1,5-A][1,3,5]triazine and pyrazolo[1,5-A]pyrimidine derivatives as CDK inhibitors” (Aurigene Discovery Technologies Limited, priority 2015, dated 2021).

Target: CDK7/CycH/MNAT1 (Homo sapiens (Human), UniProt P50613)
Assay: Biochemical assay for CDK7 (TR-FRET kinase assay)
Conditions: 60 min pre-incubation, 1 mM ATP; for inhibition at 10 µM: 10 μM compound, read-out: % inhibition @ 10 μM; for IC50: read-out: IC50
Experimental: The ability of compounds to inhibit CDK7 kinase activity was tested in a TR-FRET assay using 5 nM of CDK7/CycH/MNAT1 obtained from Invitrogen, USA. Test compounds were pre-incubated with the kinase at room temperature for 60 min. After incubation, substrate mix [100 nM Ultra-light MBP (Perkin Elmer, USA) and 1 mM ATP (Sigma)] was added. The above reaction was stopped by the addition of 40 mM EDTA after 60 minutes of kinase reaction. 1 nM Eu-labelled antiphospho-MBP antibody [Perkin Elmer, USA] was added, mixed well and the fluorescence emission at 615 nm and 665 nm [excitation at 340 nm] was measured. The final DMSO concentration in the assay was 1%. For IC50 determination, appropriate concentrations were made by ⅓^rd serial dilutions of 10 mM DMSO stock solution of test compound. All the fluorescence measurements were made in a Victor 3 Multilabel Counter [Perkin Elmer, USA]. The IC50 was determined by fitting the dose response data to sigmoidal curve fitting equation using GraphPad Prism software V5. To identify compounds that inhibit CDK7 irreversibly, time depended inhibition studies were carried by pre-incubating compound with the enzyme at three time points (20, 60 and 180 min) and carrying out assay as described above.

Chain of CDK7/CycH/MNAT1 (P50613 whole entry): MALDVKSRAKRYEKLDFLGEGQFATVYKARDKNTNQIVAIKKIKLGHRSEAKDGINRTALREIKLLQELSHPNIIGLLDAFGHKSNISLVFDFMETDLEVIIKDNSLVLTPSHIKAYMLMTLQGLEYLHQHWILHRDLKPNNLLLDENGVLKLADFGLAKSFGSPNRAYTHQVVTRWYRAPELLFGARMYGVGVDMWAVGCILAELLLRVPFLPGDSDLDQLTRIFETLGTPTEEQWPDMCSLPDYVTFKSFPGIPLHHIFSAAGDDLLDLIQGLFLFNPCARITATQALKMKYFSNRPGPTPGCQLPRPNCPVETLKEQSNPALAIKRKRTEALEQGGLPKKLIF
Chain of CDK7/CycH/MNAT1 (P51946 whole entry partner): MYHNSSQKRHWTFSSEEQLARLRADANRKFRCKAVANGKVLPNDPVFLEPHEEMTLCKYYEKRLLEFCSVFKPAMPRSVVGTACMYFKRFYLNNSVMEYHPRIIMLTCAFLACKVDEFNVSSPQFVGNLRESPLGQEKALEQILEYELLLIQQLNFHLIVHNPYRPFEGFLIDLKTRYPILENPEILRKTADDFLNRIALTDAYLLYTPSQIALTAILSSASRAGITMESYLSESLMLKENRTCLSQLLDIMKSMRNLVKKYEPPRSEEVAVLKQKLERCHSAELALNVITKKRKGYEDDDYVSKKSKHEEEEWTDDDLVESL
Chain of CDK7/CycH/MNAT1 (P51948 whole entry partner): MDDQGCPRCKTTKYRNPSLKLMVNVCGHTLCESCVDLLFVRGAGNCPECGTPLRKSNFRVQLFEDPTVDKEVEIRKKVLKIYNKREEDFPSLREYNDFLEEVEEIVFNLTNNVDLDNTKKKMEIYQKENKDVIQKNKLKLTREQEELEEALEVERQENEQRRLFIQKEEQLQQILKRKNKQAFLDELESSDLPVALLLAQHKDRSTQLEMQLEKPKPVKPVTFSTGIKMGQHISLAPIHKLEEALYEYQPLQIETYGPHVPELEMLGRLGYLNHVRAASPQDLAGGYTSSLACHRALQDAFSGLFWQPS

Row | Structure (SMILES) | inhibition at 10 µM [%] | IC50 [µM]
1 | C=CC(=O)N[C@H]1CC[C@@H](C(=O)Nc2ccc(F)c(CNc3nc(NC4CCOCC4)nc4c(C(C)C)cnn34)c2)CC1 [Compound 39, (1,4-cis)-4-acrylamido-N-(4-fluoro-3-(((8-isopropyl-2-((tetrahydro-2H-pyran-4-yl)amino)pyrazolo[1,5-a][1,3,5]triazin-4-yl)amino)methyl)phenyl)cyclohexane-1-carboxamide] | 76 | > 1
2 | C=CC(=O)N1CCOCC1C(=O)Nc1cncc(CNc2nc(NC3CCOCC3)nc3c(C(C)C)cnn23)c1 (stereo not shown) [Compound 40, 4-acryloyl-N-(5-(((8-isopropyl-2-((tetrahydro-2H-pyran-4-yl)amino)pyrazolo[1,5-a][1,3,5]triazin-4-yl)amino)methyl)pyridin-3-yl)morpholine-3-carboxamide] | 99 | < 0.3
3 | C=CC(=O)Nc1cc(C(=O)Nc2cccc(CNc3nc(NC4CCOCC4)nc4c(C(C)C)cnn34)c2)ccc1C [Compound 40A, 3-acrylamido-N-(3-(((8-isopropyl-2-((tetrahydro-2H-pyran-4-yl)amino)pyrazolo[1,5-a][1,3,5]triazin-4-yl)amino)methyl)phenyl)-4-methylbenzamide] |  | < 0.3
4 | C=CC(=O)Nc1ccc(C)c(C(=O)Nc2cccc(CNc3nc(NC4CCOCC4)nc4c(C(C)C)cnn34)c2)c1 [Compound 40B, 5-acrylamido-N-(3-(((8-isopropyl-2-((tetrahydro-2H-pyran-4-yl)amino)pyrazolo[1,5-a][1,3,5]triazin-4-yl)amino)methyl)phenyl)-2-methylbenzamide] |  | < 0.3
5 | C=CC(=O)N1CCN(C(=O)Oc2cccc(CNc3nc(NC4CCOCC4)nc4c(C(C)C)cnn34)c2)CC1 [Compound 46, 3-(((8-isopropyl-2-((tetrahydro-2H-pyran-4-yl)amino)pyrazolo[1,5-a][1,3,5]triazin-4-yl)amino)methyl)phenyl 4-acryloylpiperazine-1-carboxylate] | 98 | < 0.3
6 | C=CC(=O)Nc1cccc(C(=O)Nc2cccc(CNc3nc(NC4CCOCC4)nc4c(C(C)C)cnn34)c2)c1 [Compound 47, 3-acrylamido-N-(3-(((8-isopropyl-2-((tetrahydro-2H-pyran-4-yl)amino)pyrazolo[1,5-a][1,3,5]triazin-4-yl)amino)methyl)phenyl)benzamide] | 100 | < 0.3
7 | C=CC(=O)Nc1ccccc1C(=O)Nc1cccc(CNc2nc(NC3CCOCC3)nc3c(C(C)C)cnn23)c1 [Compound 48, 2-acrylamido-N-(3-(((8-isopropyl-2-((tetrahydro-2H-pyran-4-yl)amino)pyrazolo[1,5-a][1,3,5]triazin-4-yl)amino)methyl)phenyl)benzamide] | 98 | < 0.3
8 | C=CC(=O)Nc1cccc(C(=O)Nc2cccc(CNc3nc(NC4CCOCC4)nc4c(C(C)C)cnn34)c2)c1C [Compound 48A, 3-acrylamido-N-(3-(((8-isopropyl-2-((tetrahydro-2H-pyran-4-yl)amino)pyrazolo[1,5-a][1,3,5]triazin-4-yl)amino)methyl)phenyl)-2-methylbenzamide] |  | < 0.3
9 | CC(C)c1cnn2c(NCc3cccc(NC/C=C/C(=O)N(C)C)c3)nc(NC3CCOCC3)nc12 [Compound 49, (E)-4-((3-(((8-isopropyl-2-((tetrahydro-2H-pyran-4-yl)amino)pyrazolo[1,5-a][1,3,5]triazin-4-yl)amino)methyl)phenyl)amino)-N,N-dimethylbut-2-enamide] | 84 | > 1
10 | CCN(CC)C/C=C/C(=O)Nc1cccc(CNc2nc(NC3CCOCC3)nc3c(C(C)C)cnn23)c1 [Compound 50, (E)-4-(diethylamino)-N-(3-(((8-isopropyl-2-((tetrahydro-2H-pyran-4-yl)amino)pyrazolo[1,5-a][1,3,5]triazin-4-yl)amino)methyl)phenyl)but-2-enamide] | 97 | < 0.3
11 | CC(C)c1cnn2c(NCc3cccc(NC(=O)/C=C/CN4CCOCC4)c3)nc(NC3CCOCC3)nc12 [Compound 51, (E)-N-(3-(((8-isopropyl-2-((tetrahydro-2H-pyran-4-yl)amino)pyrazolo[1,5-a][1,3,5]triazin-4-yl)amino)methyl)phenyl)-4-morpholinobut-2-enamide] | 91 | 0.3 to 1
12 | CCN1CCN(C/C=C/C(=O)Nc2cccc(CNc3nc(NC4CCOCC4)nc4c(C(C)C)cnn34)c2)CC1 [Compound 52, (E)-4-(4-ethylpiperazin-1-yl)-N-(3-(((8-isopropyl-2-((tetrahydro-2H-pyran-4-yl)amino)pyrazolo[1,5-a][1,3,5]triazin-4-yl)amino)methyl)phenyl)but-2-enamide] | 96 | 
13 | CC(C)c1cnn2c(NCc3cccc(NC(=O)/C=C/CN(C)C)c3)nc(NC3CCOCC3)nc12 [Compound 53, (E)-4-(dimethylamino)-N-(3-(((8-isopropyl-2-((tetrahydro-2H-pyran-4-yl)amino)pyrazolo[1,5-a][1,3,5]triazin-4-yl)amino)methyl)phenyl)but-2-enamide] | 99 | < 0.3
14 | CC(C)c1cnn2c(NCc3cccc(NC(=O)/C=C/CN4CCCC4)c3)nc(NC3CCOCC3)nc12 [Compound 54, (E)-N-(3-(((8-isopropyl-2-((tetrahydro-2H-pyran-4-yl)amino)pyrazolo[1,5-a][1,3,5]triazin-4-yl)amino)methyl)phenyl)-4-(pyrrolidin-1-yl)but-2-enamide] | 98 | < 0.3
15 | CC(C)c1cnn2c(NCc3cccc(NC(=O)/C=C/CN4CCCCC4)c3)nc(NC3CCOCC3)nc12 [Compound 55, (E)-N-(3-(((8-isopropyl-2-((tetrahydro-2H-pyran-4-yl)amino)pyrazolo[1,5-a][1,3,5]triazin-4-yl)amino)methyl)phenyl)-4-(piperidin-1-yl)but-2-enamide] | 99 | < 0.3

Other lines, results leading:

Row | inhibition at 10 µM [%] | IC50 [µM] | Structure (SMILES)
16 | 91 | 0.3 to 1 | C=CC(=O)N1CCCCC1C(=O)Nc1cc(F)cc(CNc2nc(NC3CCOCC3)nc3c(C(C)C)cnn23)c1 (stereo not shown) [Compound 36, 1-acryloyl-N-(3-fluoro-5-(((8-isopropyl-2-((tetrahydro-2H-pyran-4-yl)amino)pyrazolo[1,5-a][1,3,5]triazin-4-yl)amino)methyl)phenyl)piperidine-2-carboxamide]
17 | 91 | < 0.3 | C=CC(=O)N1CCCCC1C(=O)Nc1ccc(F)c(CNc2nc(NC3CCOCC3)nc3c(C(C)C)cnn23)c1 (stereo not shown) [Compound 37, 1-acryloyl-N-(4-fluoro-3-(((8-isopropyl-2-((tetrahydro-2H-pyran-4-yl)amino)pyrazolo[1,5-a][1,3,5]triazin-4-yl)amino)methyl)phenyl)piperidine-2-carboxamide]
18 |  | < 0.3 | C=CC(=O)N1C(C)CCCC1C(=O)Nc1cccc(CNc2nc(NC3CCOCC3)nc3c(C(C)C)cnn23)c1 (stereo not shown) [Compound 40C, 1-acryloyl-N-(3-(((8-isopropyl-2-((tetrahydro-2H-pyran-4-yl)amino)pyrazolo[1,5-a][1,3,5]triazin-4-yl)amino)methyl)phenyl)-6-methylpiperidine-2-carboxamide]
19 |  | 0.3 to 1 | C=CC(=O)N1CCCCC1C(=O)Nc1cccc(CNc2nc(N[C@H]3CCCOC3)nc3c(C(C)C)cnn23)c1 (stereo partly drawn) [Compound 40D, 1-acryloyl-N-(3-(((8-isopropyl-2-(((S)-tetrahydro-2H-pyran-3-yl)amino)pyrazolo[1,5-a][1,3,5]triazin-4-yl)amino)methyl)phenyl)piperidine-2-carboxamide]
20 | 92 | 0.3 to 1 | C=CC(=O)N1CCC[C@H](NC(=O)c2cccc(CNc3nc(NC4CCOCC4)nc4c(C(C)C)cnn34)c2)C1 [Compound 41, (S)—N-(1-acryloylpiperidin-3-yl)-3-(((8-isopropyl-2-((tetrahydro-2H-pyran-4-yl)amino)pyrazolo[1,5-a][1,3,5]triazin-4-yl)amino)methyl)benzamide]
21 | 79 | 0.3 to 1 | C=CC(=O)N1CCC(C(=O)Nc2cc(CNc3nc(NC4CCOCC4)nc4c(C(C)C)cnn34)ccc2F)C1 (stereo not shown) [Compound 43, 1-acryloyl-N-(2-fluoro-5-(((8-isopropyl-2-((tetrahydro-2H-pyran-4-yl)amino)pyrazolo[1,5-a][1,3,5]triazin-4-yl)amino)methyl)phenyl)pyrrolidine-3-carboxamide]
22 | 94 | < 0.3 | C=CC(=O)N1CCCCC1C(=O)Nc1cc(CNc2nc(NC3CCOCC3)nc3c(C(C)C)cnn23)ccc1F (stereo not shown) [Compound 44, 1-acryloyl-N-(2-fluoro-5-(((8-isopropyl-2-((tetrahydro-2H-pyran-4-yl)amino)pyrazolo[1,5-a][1,3,5]triazin-4-yl)amino)methyl)phenyl)piperidine-2-carboxamide]
23 | 73 | > 1 | C=CC(=O)N1CCCC(C(=O)Nc2cccc(C(C)Nc3nc(NC4CCOCC4)nc4c(C(C)C)cnn34)c2)C1 (stereo not shown) [Compound 45, 1-acryloyl-N-(3-(1-((8-isopropyl-2-((tetrahydro-2H-pyran-4-yl)amino)pyrazolo[1,5-a][1,3,5]triazin-4-yl)amino)ethyl)phenyl)piperidine-3-carboxamide]
